Experimental findings from publication PMC5062169, “Structural basis for ligand recognition by a Cache chemosensory domain that mediates carboxylate sensing in Pseudomonas syringae” (Scientific Reports, 2016) are described below.

The target in the first test is T1, PscD (PscD-SD, Cache sensor domain of chemoreceptor PscD) (Pseudomonas syringae, UniProt A0ABY1U976).
T1 construct: gene CFBP3846_03581; sensor domain, Gln31-Trp188, N-terminal His6 tag
T1 sequence (A0ABY1U976 31-188): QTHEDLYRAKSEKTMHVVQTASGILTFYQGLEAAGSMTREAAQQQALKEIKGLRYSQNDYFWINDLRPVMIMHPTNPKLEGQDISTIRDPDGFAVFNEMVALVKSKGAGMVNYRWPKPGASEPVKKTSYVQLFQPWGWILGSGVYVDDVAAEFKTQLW
More on the design: fluorescence thermal shift (SYPRO Orange) screen of Biolog PM1/PM2 compounds, delta Tm. The conditions noted are these: Biolog plate compound, exact concentration unknown; binder. The source says:
We used high-throughput fluorescence thermal shift (FTS) assays (as described previously[16]) to screen for potential ligands of PscD-SD. FTS assays are based on the principle that ligands stabilise proteins upon binding, causing an increase in the melting temperature of the protein[22][23]. Binding can therefore be rapidly screened by measuring the difference in the temperature midpoint of unfolding (ΔTm) of a protein in the presence and absence of potential ligands. In our FTS assays, the Tm was measured by monitoring an increase in fluorescence of a dye with affinity for hydrophobic parts of the protein (i.e. SYPRO Orange), which are exposed as the protein unfolds. We screened the recombinant PscD-SD protein in FTS assays against the compounds in Biolog Phenotype Microarray (PM) plates 1 and 2 (Supplementary Tables 1 and 2). Each plate contains 95 different compounds (e.g., organic acids, sugars) and a water (no ligand) control. For use in FTS assays, the compounds were resuspended directly in water, thus generating a library of biologically relevant potential ligands. […] Fluorescent thermal shift (FTS) assays were conducted as reported previously. PscD-SD was screened for potential ligands against Biolog Phenotype Microarray (PM) plates 1 and 2 (Biolog, Hayward, CA, USA). For initial qualitative, high-throughput screening, ligands were prepared by dissolving Biolog PM compounds in 50 μL of water (each) to obtain a final concentration of approximately 10–20 mM (the exact concentrations vary from well-to-well). Screens were set up in Lightcycler 480 multiwell plates (Roche Diagnostics, Auckland, NZ) with 20 μM protein, a 5x concentration of SYPRO orange (Life Technologies, Carlsbad, CA, USA) and 5 μL of the test compound (i.e. resuspended Biolog ligands) added to each well. The plate was covered with Lightcycler 480 sealing film (Roche Diagnostics) and fluorescence signal was monitored as the temperature was increased from 20 °C to 80 °C at a rate of 1.2 °C.min^−1 in a Lightcycler 480 (Roche Diagnostics). Initial hits were further tested using known concentrations (0, 1, 2, 5 and 10 mM) of each potential ligand to confirm binding. The ligands were prepared as 10x stocks, 2 μL were added to each well, and the experiments were conducted as described above. The first derivative values (−dF/dt) from the raw fluorescence data were used to determine the melting temperature (Tm). Three biological replicates (from independently cultured and purified batches of protein) were performed for each plate screened.
Consider `C[N+](C)(C)CC(O)CC(=O)[O-]` (racemic) [D,L-Carnitine], for which the “Δ Tm” value is -0.02 ± 0.02 °C.

`NCC(O)c1ccc(O)cc1` (racemic) [D,L-Octopamine]: the “Δ Tm” value was 0.03 ± 0.03 °C.

For `C[C@@H](O)[C@@H](C)O` [2,3-Butanediol], the “Δ Tm” value amounted to 0.05 ± 0.03 °C.

With `O=CC[C@H](O)[C@H](O)CO` [2-Deoxy-D-Ribose], the “Δ Tm” value was 0.66 ± 0.05 °C.

As for `O=C(O)c1ccccc1O` [2-Hydroxy Benzoic Acid], the “Δ Tm” value is 0.00 ± 0.04 °C.

Consider `O=C(O)c1ccc(O)cc1` [4-Hydroxy Benzoic Acid], for which the “Δ Tm” value is 0.03 ± 0.03 °C.

`O=C(CO)[C@@H](O)[C@H](O)[C@@H](O)C(=O)O` [5-keto-D-Gluconic Acid]: the “Δ Tm” value turned out to be 0.10 ± 0.02 °C.

For `CC(N)=O` [Acetamide], the “Δ Tm” value came to 0.00 ± 0.00 °C.

For the compound `N#C[C@H](O[C@@H]1O[C@H](CO[C@@H]2O[C@H](CO)[C@@H](O)[C@H](O)[C@H]2O)[C@@H](O)[C@H](O)[C@H]1O)c1ccccc1` [Amygdalin], the “Δ Tm” value is 0.03 ± 0.03 °C.

With `OC[C@H]1O[C@@H](Oc2ccc(O)cc2)[C@H](O)[C@@H](O)[C@@H]1O` [Arbutin], the “Δ Tm” value was 0.03 ± 0.05 °C.

Take `C/C(=C/C(=O)O)C(=O)O` [Citraconic Acid]: the “Δ Tm” value stood at 0.08 ± 0.00 °C.

Regarding `CC(O)(CC(=O)O)C(=O)O` (centres unmarked) [Citramalic Acid], the “Δ Tm” value was determined as 0.03 ± 0.03 °C.

Turning to `OC1OC[C@@H](O)[C@@H](O)[C@@H]1O` (stereo partly drawn) [D-Arabinose], the “Δ Tm” value was determined as 0.05 ± 0.05 °C.

As to `OC[C@@H](O)C(O)[C@H](O)CO` [D-Arabitol], the “Δ Tm” value is 0.00 ± 0.05 °C.

On to `C[C@@H](O)[C@H](O)[C@H](O)[C@@H](O)C=O` [D-Fucose], for which the “Δ Tm” value came to 0.10 ± 0.11 °C.

Consider `N[C@H]1C(O)O[C@H](CO)[C@@H](O)[C@@H]1O` (stereo partly drawn) [D-Glucosamine], for which the “Δ Tm” value was -0.25 ± 0.03 °C.

In the case of `COC(=O)[C@@H](C)O` [D-Lactic Acid Methyl Ester], the “Δ Tm” value was 0.00 ± 0.00 °C.

As to `OC[C@H]1O[C@@](CO)(O[C@H]2O[C@H](CO)[C@@H](O)[C@H](O)[C@H]2O)[C@@H](O[C@H]2O[C@H](CO)[C@@H](O)[C@H](O)[C@H]2O)[C@@H]1O` [D-Melezitose], the “Δ Tm” value turned out to be 0.03 ± 0.03 °C.

Take `OC[C@H]1O[C@H](OC[C@H]2O[C@H](O[C@]3(CO)O[C@H](CO)[C@@H](O)[C@@H]3O)[C@H](O)[C@@H](O)[C@@H]2O)[C@H](O)[C@@H](O)[C@H]1O` [D-Raffinose]: the “Δ Tm” value was 0.00 ± 0.00 °C.

In the case of `O=C(CO)[C@@H](O)[C@@H](O)[C@H](O)CO` [D-Tagatose], the “Δ Tm” value was 0.00 ± 0.04 °C.

As for `O=C(CO)CO` [Dihydroxyacetone], the “Δ Tm” value is 0.35 ± 0.14 °C.

`NCC(=O)O` [Glycine]: the “Δ Tm” value turned out to be 0.05 ± 0.05 °C.

For the compound `O=C(O)[C@@H]1C[C@@H](O)CN1` [Hydroxy-L-Proline], the “Δ Tm” value was 0.03 ± 0.05 °C.

`C=C(CC(=O)O)C(=O)O` [Itaconic Acid]: the “Δ Tm” value is -0.05 ± 0.33 °C.

For the compound `C[C@H](N)C(N)=O` [L-Alaninamide], the “Δ Tm” value is 0.08 ± 0.00 °C.

As for `OC[C@H](O)C(O)[C@@H](O)CO` [L-Arabitol], the “Δ Tm” value worked out at 0.03 ± 0.03 °C.

With `N=C(N)NCCC[C@H](N)C(=O)O` [L-Arginine], the “Δ Tm” value worked out at 0.03 ± 0.03 °C.

As to `N[C@@H](Cc1c[nH]cn1)C(=O)O` [L-Histidine], the “Δ Tm” value worked out at 0.00 ± 0.04 °C.

As to `N[C@@H](CCO)C(=O)O` [L-Homoserine], the “Δ Tm” value turned out to be 0.03 ± 0.03 °C.

Regarding `CC[C@H](C)[C@H](N)C(=O)O` [L-Isoleucine], the “Δ Tm” value came to 0.08 ± 0.00 °C.

`CC(C)C[C@H](N)C(=O)O` [L-Leucine]: the “Δ Tm” value was found to be 0.05 ± 0.03 °C.

Take `NCCCC[C@H](N)C(=O)O` [L-Lysine]: the “Δ Tm” value turned out to be 0.10 ± 0.11 °C.

Take `CSCC[C@H](N)C(=O)O` [L-Methionine]: the “Δ Tm” value worked out at 0.43 ± 0.39 °C.

On to `N[C@@H](Cc1ccccc1)C(=O)O` [L-Phenylalanine], for which the “Δ Tm” value turned out to be 0.08 ± 0.00 °C.

In the case of `O=C1CC[C@@H](C(=O)O)N1` [L-Pyroglutamic Acid], the “Δ Tm” value is 0.08 ± 0.00 °C.

For the compound `CC(C)[C@H](N)C(=O)O` [L-Valine], the “Δ Tm” value is 0.03 ± 0.03 °C.

Take `OC[C@@H](O)[C@@H](O[C@@H]1O[C@H](CO)[C@H](O)[C@H](O)[C@H]1O)[C@H](O)[C@@H](O)CO` [Lactitol]: the “Δ Tm” value is 0.08 ± 0.00 °C.

For the compound `O=C(O)CC(=O)O` [Malonic Acid], the “Δ Tm” value stood at 0.08 ± 0.00 °C.

Take `OC[C@@H](O)[C@@H](O[C@H]1O[C@H](CO)[C@@H](O)[C@H](O)[C@H]1O)[C@H](O)[C@@H](O)CO` [Maltitol]: the “Δ Tm” value is 0.05 ± 0.05 °C.

As for `O=C(O)[C@H](O)[C@@H](O)[C@H](O)[C@H](O)CO[C@H]1O[C@H](CO)[C@H](O)[C@H](O)[C@H]1O` [Melibionic Acid], the “Δ Tm” value was 0.08 ± 0.00 °C.

Turning to `CC(=O)N[C@H]1C(O)O[C@H](CO)[C@H](O)[C@@H]1O` (stereo partly drawn) [N-Acetyl-D-Galactosamine], the “Δ Tm” value was determined as 0.00 ± 0.00 °C.

As to `CC(=O)N[C@@H](CO)[C@@H](O)[C@H](O)[C@H](O)CO` [N-Acetyl-D-Glucosaminitol], the “Δ Tm” value is 0.08 ± 0.00 °C.

For the compound `CC(=O)N[C@@H](CCC(=O)O)C(=O)O` [N-Acetyl-L-Glutamic Acid], the “Δ Tm” value was 0.08 ± 0.00 °C.

Regarding `CC(=O)N[C@H]1[C@H]([C@H](O)[C@H](O)CO)OC(O)(C(=O)O)C[C@@H]1O` (some centres unmarked) [N-Acetyl-Neuraminic Acid], the “Δ Tm” value was determined as 0.08 ± 0.00 °C.

On to `O=C(O)C(=O)O` [Oxalic Acid], for which the “Δ Tm” value was 0.03 ± 0.03 °C.

As to `NCCCCN` [Putrescine], the “Δ Tm” value stood at 0.03 ± 0.05 °C.

With `O=C(O)[C@]1(O)C[C@@H](O)[C@@H](O)[C@H](O)C1` [Quinic Acid], the “Δ Tm” value was determined as 0.00 ± 0.04 °C.

For the compound `OCc1ccccc1O[C@@H]1O[C@H](CO)[C@@H](O)[C@H](O)[C@H]1O` [Salicin], the “Δ Tm” value was 0.08 ± 0.00 °C.

For the compound `O=C(O)CCCCCCCCC(=O)O` [Sebacic Acid], the “Δ Tm” value is 0.48 ± 0.09 °C.

Take `CCC(C)N` (centres unmarked) [Sec-Butylamine]: the “Δ Tm” value is 0.00 ± 0.04 °C.

Turning to `OC[C@@]12OC[C@@H](O1)[C@@H](O)[C@@H](O)[C@@H]2O` [Sedoheptulosan], the “Δ Tm” value stood at 0.08 ± 0.00 °C.

As for `C/C=C/C=C/C(=O)O` [Sorbic Acid], the “Δ Tm” value worked out at 0.65 ± 0.09 °C.

Turning to `OC[C@H]1O[C@H](OC[C@H]2O[C@H](OC[C@H]3O[C@H](O[C@]4(CO)O[C@H](CO)[C@@H](O)[C@@H]4O)[C@H](O)[C@@H](O)[C@@H]3O)[C@H](O)[C@@H](O)[C@H]2O)[C@H](O)[C@@H](O)[C@H]1O` [Stachyose], the “Δ Tm” value was 0.05 ± 0.05 °C.

As to `NC(=O)CCC(=O)O` [Succinamic Acid], the “Δ Tm” value is 0.18 ± 0.10 °C.

Take `O=C(CO)[C@@H](O[C@H]1O[C@H](CO)[C@@H](O)[C@H](O)[C@H]1O)[C@H](O)[C@H](O)CO` [Turanose]: the “Δ Tm” value worked out at 0.03 ± 0.03 °C.

Regarding `OC[C@H]1O[C@@H]2O[C@H]3[C@H](O)[C@@H](O)[C@@H](O[C@H]4[C@H](O)[C@@H](O)[C@@H](O[C@H]5[C@H](O)[C@@H](O)[C@@H](O[C@H]6[C@H](O)[C@@H](O)[C@@H](O[C@H]7[C@H](O)[C@@H](O)[C@@H](O[C@H]1[C@H](O)[C@H]2O)O[C@@H]7CO)O[C@@H]6CO)O[C@@H]5CO)O[C@@H]4CO)O[C@@H]3CO` [α-Cyclodextrin], the “Δ Tm” value worked out at 0.08 ± 0.0 °C.

For the compound `CO[C@H]1O[C@H](CO)[C@@H](O)[C@H](O)[C@@H]1O` [α-Methyl-D-Mannoside], the “Δ Tm” value amounted to 0.05 ± 0.03 °C.

The test is the same for the next values; noted with them: Biolog plate compound, exact concentration unknown; binder; Δ Tm.
`O=C(O)[C@@H](O)[C@H](O)C(=O)O` [D-Tartaric Acid]: the “Δ Tm” value was determined as 0.10 ± 0.11 °C.

Turning to `O=C(O)[C@H](O)[C@@H](O)C(=O)O` [L-Tartaric Acid], the “Δ Tm” value was 0.33 ± 0.29 °C.
